Data reported in patent US20130041005A1, “PHARMACEUTICAL COMPOSITIONS COMPRISING NEUROPILIN INHIBITORS, AND THEIR USE FOR THE PREVENTION AND/OR TREATMENT OF ANGIOGENIC DISORDERS AND CANCERS” (TRAGEX PHARMA, priority 2011, published 2013).

Tests used:
[1] = tested on: PC-3; test: WST-1 proliferation assay, PC-3; assay type: cell-based; conditions: Homo sapiens; PC-3, 0.05 μM
[2] = target: T1, NRP-1 (Homo sapiens, UniProt O14786); test: ELISA inhibition of VEGF binding to NRP-1; conditions: for inhibition at 10 µM: compounds at 10 μM
T1 construct: purchased R&D Systems, UK 3870-N1-025
T1 sequence (O14786 22-644 isoform O14786-2 limits assumed): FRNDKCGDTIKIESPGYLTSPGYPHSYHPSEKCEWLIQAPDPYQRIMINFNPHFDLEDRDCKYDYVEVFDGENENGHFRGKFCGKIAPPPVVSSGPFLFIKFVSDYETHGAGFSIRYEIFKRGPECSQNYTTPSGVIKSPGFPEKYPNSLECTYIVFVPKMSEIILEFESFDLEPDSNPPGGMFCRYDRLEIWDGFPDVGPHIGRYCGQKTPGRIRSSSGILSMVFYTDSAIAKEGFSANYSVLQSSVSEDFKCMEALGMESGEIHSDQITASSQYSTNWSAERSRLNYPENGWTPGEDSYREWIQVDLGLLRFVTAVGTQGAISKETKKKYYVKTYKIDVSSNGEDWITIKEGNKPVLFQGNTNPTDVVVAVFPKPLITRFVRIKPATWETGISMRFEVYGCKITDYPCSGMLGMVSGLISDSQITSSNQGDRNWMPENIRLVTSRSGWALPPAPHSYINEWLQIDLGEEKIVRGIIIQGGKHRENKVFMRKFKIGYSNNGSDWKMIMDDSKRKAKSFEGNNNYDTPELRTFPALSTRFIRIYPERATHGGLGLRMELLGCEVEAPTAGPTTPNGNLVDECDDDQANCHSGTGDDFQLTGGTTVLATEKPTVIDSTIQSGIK
Procedure: Elisa test was performed covering a 96-well microplate (BD Biosciences, France, cat no 353046) surface with 100 μl of 1×PBS, pH 7.4 with Ca^2+ and Mg^2+, (Lonza, France, cat no 17-513F/12) solution containing 0.2 μg/ml of VEGF-R1 (R&D Systems, UK, cat no 321-FL-050/CF) or 2 μg/ml of NRP-1 (R&D Systems, UK, cat no 3870-N1-025) or NRP-2 (R&D Systems, UK, cat no […]). The plate was sealed and incubated overnight at 4° C. After 3 washes with 200 μl of 1×PBS 0.5% (v/v) Tween 20 (Sigma, France, cat no 34078) (Buffer A), the plate was blocked by adding 200 μl of 1×PBS with 0.5% (w/v) BSA (Eurobio, France, cat no GAUBSA01-65) and agitated at 37° C. for 2 h. After washing five times with Buffer A, 50 μl/well of the compounds of the invention at 10 μM were added for the specific signal and 50 μl/well for the non-specific and max binding signal and incubated at 37° C. for 1 hour, shacking. 50 μl of btVEGF (R&D Systems, UK, cat no NFVEO) at […] for NRP-1/4 μg/ml Heparin (Sigma, USA, cat no H3393-10KU), 300 μg/ml for NRP-2 and 100 μg/ml for VEGF-R1 solution was added to each well; the plate was sealed and incubated at 37° C. for 2 h, shacking. The last incubation was carried out, after five washes with Buffer A, adding 100 μl/well Streptavidin-Horseradish Peroxidase (Amersham, Switzerland, cat no RPN4401) diluted 1:8000 with buffer A. After 1 h shacking at 37° C. under obscurity, the plate was washed 5 times with buffer A and 100 μl of SuperSignal west picochemiluminescent substrate (Interchim, USA cat no 34078) were added. Luminescence was quantified with an EnVision™ 2101 Multilabel reader (Perkin Elmer, USA) and the data analyzed by Wallac Envision manager software. Signal is given as relative light units (RLU). Non-specific binding is defined as the signal measured in the absence of receptor coated on the microplate. The specific binding was calculated as the difference between total binding and non-specific binding. The percentage of inhibition was calculated as following: […]

[3] = tested on: U87 glioblastoma; test: WST-1 proliferation assay, U87; assay type: cell-based; conditions: Homo sapiens
[4] = tested on: MDA-MB-231; test: WST-1 proliferation assay, MDA-MB-231; assay type: cell-based, Human; conditions: for IC50: Homo sapiens, Breast MDA-MB-231, 72 h, read-out: Anti-proliferative activity IC50 (μM) ± SD; for effect on anti-proliferative effect of 5-FU: MDA-MB-231, combination with 5-FU, 72 hours (FIG. 7); for cytotoxicity for cancer cells in vitro: MDAMB-231 cell survival, FIGS. 1A-C
Procedure: Cells were grown as subconfluent monolayer and cultured in 75 cm^2 flasks at 37° C., 5% CO2 in a humidified atmosphere, and medium was changed every two days. Only cells from passages 2-6 were used for the experiments.
All cells were detached with 3 ml of trypsin/EDTA (chelator of calcium and magnesium ions) (Lonza), incubated for 5 min at 37° C., and examined using a microscope to ensure that the cells were detached and floating. […] The supernatant was removed and the cell pellet resuspended in […] of culture medium. 50 μl of this solution were transferred in 20 μl of isotonic solution and the cells were counted by count cellular (Beckman Coulter).
The cell proliferation WST-1 assay is a colorimetric assay for the quantification of cell proliferation and viability, based on the enzymatic cleavage of the tetrazolium salt WST-1 added to the culture medium, to a water soluble colored formazan dye, detected by absorbance at 450 nm, by mitochondrial succinate-tetrazolium reductase in viable cells. An augmentation in enzyme activity will then lead to an increase in the amount of formazan dye formed, which directly correlates to the number of metabolically active cells in the culture.
After an incubation period of 72 h, at day 4, were prepared the […] medium with reagent WST-1 […] ([…]). The medium was removed from the 96 microplate and 200 μl of solution WST-1/medium were added for each well. The cells were incubated at 37° C. in a humidified atmosphere of 5% CO2 for 1 h 30 and the absorbance at 450-655 nm was measured by Microplate Manager 5.2 (Bio-Rad).

[5] = tested on: U266; test: WST-1 proliferation assay, U266; assay type: cell-based; conditions: Homo sapiens, U-266; Myeloma U266; read-out: Anti-proliferative activity IC50 (μM) ± SD
Procedure: All the cancer cell lines were maintained in cultured in DMEM GlutaMAX™ (GIBCO Invitrogen, France, cat no 31966047) enhanced with 10% foetal bovine serum (GIBCO Invitrogen, France, cat no 10270-106) and 1% penicillin G/streptomycin (GIBCO Invitrogen, France, cat no 15140-122). Only Panc-10.5 cells were cultivated in RPMI 1640 medium (Gibco) supplemented with 2 mM L-glutamine, 1.5 g/L sodium bicarbonate, 4.5 g/L glucose, 10 mM HEPES, 1 mM sodium pyruvate, 10 Units/ml human insulin, […] (SVF): 15% (75 ml in 500 ml of medium).
Cells were grown as subconfluent monolayer and cultured in 75 cm^2 flasks at 37° C., 5% CO2 in a humidified atmosphere, and medium was changed every two days. […]
The cell proliferation WST-1 assay is a colorimetric assay for the quantification of cell proliferation and viability, based on the enzymatic cleavage of the tetrazolium salt WST-1 added to the culture medium, to a water soluble colored formazan dye, detected by absorbance at 450 nm, by mitochondrial succinate-tetrazolium reductase in viable cells. […]
After an incubation period of 72 h, at day 4, were prepared the 19 ml medium with reagent WST-1 1 ml ([…]). […] The cells were incubated at 37° C. in a humidified atmosphere of 5% CO2 for 1 h 30 and the absorbance at 450-655 nm was measured by Microplate Manager 5.2 (Bio-Rad).

Compound | inhibition at 0.05 µM [1] [%] | IC50 [2] [µM] | inhibition at 10 µM [2] [%] | inhibition at 0.05 µM [3] [%] | IC50 [4] [µM] | effect on anti-proliferative effect of 5-FU [4] | cytotoxicity for cancer cells in vitro [4] | IC50 [5] [µM]
Cc1ccc(-c2nc3ccccc3[nH]2)cc1NC(=S)NC(=O)c1ccc2c(c1)OCCO2 [Compound 1, N-[5-(1H-benzimidazol-2-yl)-2-methylphenyl]-N′-(2,3-dihydro-1,4-benzodioxin-6-ylcarbonyl)thiourea] | 0 | 38 ± 2.08 | 35 ± 4 | 0 | 0.6 ± 0.03 | increase the anti-proliferative effect of 5-FU | cytotoxic | 2
O=C(NC(=S)Nc1cccc(-c2nc3ccccc3[nH]2)c1)c1ccc2c(c1)OCCO2 [Compound 2, N-[3-(1H-benzimidazol-2-yl)phenyl]-N′-(2,3-dihydro-1,4-benzodioxin-6-ylcarbonyl)thiourea] | 0 | 34 ± 3.11 | 24 ± 2 | 19 | 0.4 ± 0.02 | increase the anti-proliferative effect of 5-FU | cytotoxic | 1.5 ± 0.04
